According to patent US10342796B2, “Acrylanilide derivative, preparation method, and applications thereof in pharmacy” (Ancureall Pharmaceutical (Shanghai) Co., Ltd., priority 2015, dated 2019):

How the values were obtained:
Experiment in all cases: Growth inhibition GI50 in vitro (CCK8/MTT, 72 h)
Format in all cases: cell-based, human
H1975 (EGFR L858R/T790M) = details: Homo sapiens, NCI-H1975; Table 13, 72 h; read-out: Range of GI50 H1975 (EGFR L858R/T790M)
Experimental: (§1) PC-9ER is an acquired Erlotinib resistance cell line of PC-9 cells developed by the investor. […] The four cell lines above were cultured with 1×RPMI1640 complete medium (supplement with 10% FBS). Human colon cancer cell line SW48 (EGFR G719S positive, ATCC). was cultured with L15 complete medium (10% FB S).
(§2) The suspension cells were collected by centrifugation. The supernatant was discard and the cell pellet was resuspended and counted. Different cell concentrations (5˜10×10^4 cells/mL) were prepared according to the growth cycle of each cell line and then seeded on a 96-well plate (Corning), 100 μL/well. The cells were incubated over night at 37° C., 5% CO2. The compounds were added to the cells on the second day with 2 wells in parallel. The final concentration of organic solvent shall not exceed 1%. The cells were continually incubated for 72 h, and then subjected to MTT assay.
(§3) The present compounds and the reference compounds were dissolved with DMSO (Sigma), respectively. […] The storage concentration of compounds was 10 mM and kept at −20° C. They were diluted by 2 times or 10 times with serial dilution before using.
(§4) Dojindo CCK8 reagent kit was used as MTT assay. […] FC meter was used as microplate reader.
(§5) Adherent cell culture medium was discard and immediately replaced with fresh prepared medium which contains 10% CCK8 reagent (100 μL/well). For the suspension cells, CCK8 was directly added to 10% of the final concentration. The cells were continually incubated for 1˜4 h. When the color of control wells turned to dark yellow, the absorption value was measured at OD450 nm. The cell growth rate was calculated according to the following formula: cell growth rate (%)=100*(T−T0)/(C−T0), T=optical density of drug treatment cell well—optical density of blank control well; T0=optical density of cell well before drug treatment—optical density of blank control well; C=optical density of cell well of solvent control group—optical density of blank control well. […] The experiment was independently repeated 1˜3 times, and subject to biological statistical analysis.

PC-9 (EGFR dE746-A750) = details: Homo sapiens; Table 13, 72 h; read-out: Range of GI50 PC-9 (EGFR dE746-A750)
Experimental: as §1, §2, §3, §4, §5

A549 (EGFR WT) = details: Homo sapiens, A549; Table 13, 72 h; read-out: Range of GI50 A549 (EGFR WT)
From the text: EGFR wild type cell lines: human epidermal cancer cell line A431 (EGFR WT, amplification and high expression, from Shanghai Cell Bank of Chinese Academy of Sciences and ATCC), NSCLC cell lines NCI-H460 (EGFR WT, Kras G61H and PI3KCA E545K mutants, ATCC) and NCI-H1299 (EGFR WT, ATCC), melanoma cell line A375 (EGFR WT and BRAF V600E mutant, from Shanghai Cell Bank of Chinese Academy of Sciences, ATCC), human lung cancer cell line NCI-H292 (EGFR WT, from human lung mucoepidermoid carcinoma/lymphatic metastasis, purchased from Shanghai Cell Bank of Chinese Academy of Sciences) were cultured with 1×RPMI1640 complete medium which was supplement with 10% FBS. NSCLC cell line A549 (EGFR WT and Kras G12S mutant, from Shanghai Cell Bank of Chinese Academy of Sciences) was cultured with 1×Ham'S F12K complete medium which was supplement with 10% FBS, 1% double-antibiotics and 2 mM glutamine.
as §2, §3, §4, §5

N87 (HER2 Amp) = details: Homo sapiens; Table 13, 72 h; read-out: Range of GI50 N87 (HER2 Amp)

SMILES | GI50 (H1975 (EGFR L858R/T790M)) [nM] | GI50 (PC-9 (EGFR dE746-A750)) [nM] | GI50 (A549 (EGFR WT)) [nM] | GI50 (N87 (HER2 Amp)) [nM]
C=CC(=O)Nc1cc(Nc2ncc(Cl)c(-n3ccc4c(OC)cccc43)n2)c(OC)cc1N(C)CCN(C)C [Compound 203, N-(5-(4-(4-methoxyl-1H-indol-1-yl)-5-chloropyrimidin-2-ylamino)-2-(2-(dimethylamino-ethyl)-methyl-amino)-4-methoxyl-phenyl)-acrylamide] | < 10 | < 10 | > 1000 | < 10
C=CC(=O)Nc1cc(Nc2nccc(-n3ccc4c(O)cccc43)n2)c(OC)cc1N(C)CCN(C)C [Compound 204, N-(5-(4-(4-hydroxyl-1H-indol-1-yl)-pyrimidin-2-ylamino)-2-(2-(dimethylamino-ethyl)-methyl-amino)-4-methoxyl-phenyl)-acrylamide] | 10 to 100 | 10 to 100 | > 1000 | < 10
C=CC(=O)Nc1cc(Nc2nccc(-n3ccc4c(OCCCCCC)cccc43)n2)c(OC)cc1N(C)CCN(C)C [Compound 206, N-(5-(4-(4-n-hexyloxy-1H-indol-1-yl)-pyrimidin-2-ylamino)-2-(2-(dimethylamino-ethyl)-methyl-amino)-4-methoxyl-phenyl)-acrylamide] | 100 to 1000 | 100 to 1000 | > 1000 | 100 to 1000
C=CC(=O)Nc1cc(Nc2nccc(-n3ccc4c(OCC5CCCO5)cccc43)n2)c(OC)cc1N(C)CCN(C)C (centres unmarked) [Compound 207, N-(5-(4-(4-((tetrahydrofuran-2-yl)-methoxyl)-1H-indol-1-yl)-pyrimidin-2-ylamino)-2-(2-(dimethylamino-ethyl)-methyl-amino)-4-methoxyl-phenyl)-acrylamide] | 10 to 100 | 10 to 100 | > 1000 | 10 to 100
C=CC(=O)Nc1cc(Nc2nccc(-n3ccc4c(OC)cccc43)n2)c(OC)cc1N1CCC(N2CCN(C)CC2)CC1 [Compound 208, N-(5-(4-(4-methoxyl-1H-indol-1-yl)-pyrimidin-2-ylamino)-2-(4-(4-methyl-piperazin-1-yl)-piperidin-1-yl)-4-methoxyl-phenyl)-acrylamide] | 100 to 1000 | 100 to 1000 | > 1000 | 10 to 100
C=CC(=O)Nc1cc(Nc2nccc(-n3ccc4c(-n5c(C)ccc5C)cc(Br)cc43)n2)c(OC)cc1N(C)CCN(C)C [Compound 214] | 10 to 100 | 10 to 100 | > 1000 | 10 to 100
C=CC(=O)Nc1cc(Nc2cc(Nc3ccc(OCCN4CCOCC4)c(Cl)c3)ncn2)c(OC)cc1N(C)CCN(C)C [Compound 215, N-(5-(6-(3-chloro-4-(2-morpholin-4-yl-ethoxyl)-phenylamino)-pyrimidin-4-ylamino)-2-((2-dimethylamino-ethyl)-methyl-amino)-4-methoxyphenyl)-acrylamide] | 10 to 100 | < 10 | > 1000 | 10 to 100
C=CC(=O)Nc1cc(Nc2cc(Nc3ccc(OC)c(Cl)c3)ncn2)c(OC)cc1OCCN(C)C [Compound 218, N-(5-(6-(3-chloro-4-methoxyl-phenylamino)-pyrimidin-4-ylamino)-2-(2-dimethylamino-ethoxyl)-4-methoxyl-phenyl)-acrylamide] | 10 to 100 | < 10 | > 1000 | 10 to 100
C=CC(=O)Nc1cc(Nc2cc(Nc3ccc(OCCC(C)C)c(Cl)c3)ncn2)c(OC)cc1N(C)CCN(C)C [Compound 219, N-(5-(6-(3-chloro-4-(3-methylbutoxy)-phenylamino)-pyrimidin-4-ylamino)-2-((2-dimethylaminoethyl)-methyl-amino)-4-methoxyphenyl)-acrylamide] | 10 to 100 | < 10 | > 1000 | 10 to 100
C=CC(=O)Nc1cc(Nc2cc(Nc3ccc(OC)c(C(F)(F)F)c3)ncn2)c(OC)cc1N(C)CCN(C)C [Compound 222, N-(5-(6-(4-methoxyl-3-trifluoromethyl-phenylamino)-pyrimidin-4-yl-amino)-2-((2-dimethylamino-ethyl)-methyl-amino)-4-methoxyl-phenyl)-acrylamide] | 10 to 100 | < 10 | > 1000 | 10 to 100
C=CC(=O)Nc1cc(Nc2cc(Nc3ccc(OCc4nccs4)c(Cl)c3)ncn2)c(OC)cc1N(C)CCN(C)C [Compound 223, N-(5-(6-(3-chloro-4-(thiazol-2-ylmethoxy)-phenylamino)-pyrimidin-4-ylamino)-2-((2-dimethylamino-ethyl)-methyl-amino)-4-methoxyl-phenyl)-acrylamide] | 10 to 100 | 10 to 100 | > 1000 | 10 to 100
C=CC(=O)Nc1cc(Nc2cc(Nc3ccc(OC)c(Br)c3)ncn2)c(OC)cc1N(C)CCN(C)C [Compound 224, N-(5-(6-(4-methoxyl-3-bromo-phenylamino)-pyrimidin-4-yl-amino)-2-((2-dimethylamino-ethyl)-methyl-amino)-4-methoxyl-phenyl)-acrylamide] | 10 to 100 | < 10 | > 1000 | 10 to 100
C=CC(=O)Nc1cc(Nc2cc(Nc3ccc(OC)c(Cl)c3)ncn2)c(OC)cc1N(C)CCN1CCCC1 [Compound 225] | 10 to 100 | 10 to 100 | – | 10 to 100
C=CC(=O)Nc1cc(Nc2cc(Nc3ccc(F)c(C(F)(F)F)c3)ncn2)c(OC)cc1N(C)CCN(C)C [Compound 226, N-(5-(6-(4-fluoro-3-trifluoromethyl-phenylamino)-pyrimidin-4-yl-amino)-2-((2-dimethylamino-ethyl)-methyl-amino)-4-methoxyl-phenyl)-acrylamide] | 10 to 100 | < 10 | > 1000 | 10 to 100
C=CC(=O)Nc1cc(Nc2cc(Nc3ccc(OC)c(Cl)c3)ncn2)c(OC)cc1N1CCN(C2CCN(C)CC2)CC1 [Compound 227, N-(5-(6-(3-chloro-4-methoxyl-phenylamino)-pyrimidin-4-ylamino)-2-(4-(1-methylpiperidin-4-yl)-piperazin-1-yl)-4-methoxyl-phenyl)-acrylamide] | 100 to 1000 | < 10 | > 1000 | 10 to 100
C=CC(=O)Nc1cc(Nc2cc(Nc3ccc(Cl)c(C(F)(F)F)c3)ncn2)c(OC)cc1N(C)CCN(C)C [Compound 228, N-(5-(6-(4-chloro-3-trifluoromethyl-phenylamino)-pyrimidin-4-yl-amino)-2-((2-dimethylamino-ethyl)-methyl-amino)-4-methoxyl-phenyl)-acrylamide] | 10 to 100 | < 10 | > 1000 | 10 to 100
C=CC(=O)Nc1cc(Nc2cc(Nc3ccc(C(F)(F)F)c(Cl)c3)ncn2)c(OC)cc1N(C)CCN(C)C [Compound 234, N-(5-(6-(3-chloro-4-trifluoromethyl-phenylamino)-pyrimidin-4-yl-amino)-2-((2-dimethylamino-ethyl)-methyl-amino)-4-methoxyl-phenyl)-acrylamide] | 10 to 100 | 10 to 100 | > 1000 | 10 to 100
C=CC(=O)Nc1cc(Nc2cc(Nc3ccc(OC(F)(F)F)c(Cl)c3)ncn2)c(OC)cc1N(C)CCN(C)C [Compound 235, N-(5-(6-(3-chloro-4-trifluoromethoxy-phenylamino)-pyrimidin-4-yl-amino)-2-((2-dimethylamino-ethyl)-methyl-amino)-4-methoxyl-phenyl)-acrylamide] | 10 to 100 | 10 to 100 | > 1000 | 10 to 100
